Test systems include SF-295 CNS; SF-268 CNS; TK-10 renal; MDA-N; HCC-2998 colon; T-47D breast; MDA-MB-435; OVCAR-8 ovarian; SNB-75 CNS; HT29 colon; UACC-62 melanoma; NCI-H226 lung; OVCAR-3 ovarian; KM12 colon; NCI/ADR-RES ovarian; A498 renal.
Common to all, as to assay: NCI anticancer screen, dose series, 48 h

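How tested: cells in 96-well plates exposed to compound for 48 hours at five concentrations. Definition used: TGI = concentration required for complete inhibition of growth.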 Where only a bound is given, the exact number is not on record here.

As for `Cc1n(CC(C)C)c2c([n+]1C)C(=O)c1ccccc1C2=O`, the TGI came to 1.65 µM in the test on SF-295 CNS; 0.155 µM in the test on SF-268 CNS; 3.38 µM in the test on TK-10 renal; 0.314 µM in the test with MDA-N; 1.53 µM with HCC-2998 colon; 0.441 µM in the test on T-47D breast. In addition, the TGI turned out to be 0.277 µM in the test with MDA-MB-435; 0.937 µM with OVCAR-8 ovarian; 1.55 µM in the test on SNB-75 CNS; 1.03 µM in the test on HT29 colon; 0.576 µM in the test with UACC-62 melanoma; 1.27 µM with NCI-H226 lung. The TGI in the test with OVCAR-3 ovarian is 0.0961 µM; in the test on KM12 colon, 1.6 µM; in the test on NCI/ADR-RES ovarian it was greater than 100 µM; in the test with A498 renal, 1.27 µM.
`CSc1c(C(=O)Nc2ccccc2)c(N)n(N)c(=O)c1C#N`: the TGI in the test on SF-268 CNS, in the test on TK-10 renal, in the test with MDA-N, with HCC-2998 colon, in the test on T-47D breast and in the test with MDA-MB-435 was greater than 100 µM in each case. The TGI with OVCAR-8 ovarian, in the test on SNB-75 CNS, in the test with HT29 colon, in the test on UACC-62 melanoma, in the test with NCI-H226 lung and in the test with OVCAR-3 ovarian was greater than 100 µM each time. The TGI in the test with KM12 colon, in the test on NCI/ADR-RES ovarian and in the test with A498 renal was greater than 100 µM throughout.
On to `Cc1ccc(C2(O)CSC(=NC34CC5CC(CC(C5)C3)C4)N2C(P(=O)(O)O)P(=O)(O)O)cc1` (stereo unspecified), for which the TGI with SF-295 CNS, with SF-268 CNS, in the test on TK-10 renal, with MDA-N, in the test with HCC-2998 colon and with T-47D breast was greater than 100 µM each time. Also, the TGI in the test on MDA-MB-435, in the test on OVCAR-8 ovarian, in the test with SNB-75 CNS, with HT29 colon, in the test on NCI-H226 lung and in the test on OVCAR-3 ovarian was greater than 100 µM each time. Further, the TGI in the test on KM12 colon is greater than 100 µM; in the test with NCI/ADR-RES ovarian it was 68.3 µM; with A498 renal, greater than 100 µM.
For `N#Cc1ccc(-c2nc3c(N)ncnc3o2)cc1`, the TGI with SF-295 CNS, in the test with SF-268 CNS, with TK-10 renal, in the test on MDA-N, in the test with HCC-2998 colon and with T-47D breast was greater than 100 µM throughout. In addition, the TGI in the test on MDA-MB-435, with OVCAR-8 ovarian, in the test on HT29 colon, with UACC-62 melanoma, in the test on NCI-H226 lung and in the test with OVCAR-3 ovarian was greater than 100 µM each time. Further, the TGI in the test with KM12 colon, in the test on NCI/ADR-RES ovarian and in the test on A498 renal was greater than 100 µM in each case.
For `O=[N+]([O-])c1ccc(CSc2nncc3[nH]cnc23)cc1`, the TGI in the test on SF-295 CNS, in the test on TK-10 renal, in the test on MDA-N, with HCC-2998 colon, in the test with T-47D breast and in the test on MDA-MB-435 was greater than 100 µM throughout. Besides, the TGI in the test with OVCAR-8 ovarian, in the test with SNB-75 CNS, with HT29 colon, with UACC-62 melanoma, with NCI-H226 lung and in the test with OVCAR-3 ovarian was greater than 100 µM throughout. Further, the TGI in the test with KM12 colon, with NCI/ADR-RES ovarian and in the test with A498 renal was greater than 100 µM each time.
In the case of `CN(/N=C/c1ccc(C(=O)O)cc1)C1=NCCCCN1`, the TGI with SF-295 CNS, in the test with SF-268 CNS, with MDA-N, with HCC-2998 colon, in the test with T-47D breast and in the test on MDA-MB-435 was greater than 100 µM each time. The TGI in the test with OVCAR-8 ovarian, with SNB-75 CNS, in the test with HT29 colon, in the test with UACC-62 melanoma, in the test with NCI-H226 lung and in the test with OVCAR-3 ovarian was greater than 100 µM throughout. Moreover, the TGI in the test on KM12 colon, with NCI/ADR-RES ovarian and with A498 renal was greater than 100 µM each time.
For `Nn1c(C23CC4CC(CC(C4)C2)C3)n[nH]c1=S`, the TGI in the test on SF-295 CNS, in the test with SF-268 CNS, in the test with TK-10 renal, in the test on MDA-N, in the test with HCC-2998 colon and with T-47D breast was greater than 100 µM in each case. For the same molecule, the TGI with MDA-MB-435, in the test with SNB-75 CNS, with HT29 colon, in the test with UACC-62 melanoma, in the test with NCI-H226 lung and in the test with OVCAR-3 ovarian was greater than 100 µM throughout. Besides, the TGI in the test with KM12 colon, in the test on NCI/ADR-RES ovarian and with A498 renal was greater than 100 µM in each case.
With `C=C(CCOC)CCC1CCCCC(CN(C)C)C1=O` (stereo unspecified), the TGI in the test on SF-295 CNS, in the test with SF-268 CNS, with MDA-N, in the test with HCC-2998 colon, in the test with T-47D breast and in the test with MDA-MB-435 was greater than 100 µM in each case. Moreover, the TGI in the test on OVCAR-8 ovarian, with SNB-75 CNS, with HT29 colon, in the test on UACC-62 melanoma, in the test on NCI-H226 lung and in the test on OVCAR-3 ovarian was greater than 100 µM each time. The TGI in the test on KM12 colon, in the test with NCI/ADR-RES ovarian and in the test with A498 renal was greater than 100 µM throughout.
Consider `COc1ccc(-c2c(C(C)=O)c(-c3ccccc3)n(C3OC(CO)C(O)C(O)C3O)c(=S)c2C#N)cc1` (stereo unspecified), for which the TGI with SF-295 CNS, in the test with SF-268 CNS, in the test on TK-10 renal, in the test on MDA-N, with HCC-2998 colon and with T-47D breast was greater than 100 µM in each case. The TGI with MDA-MB-435, in the test on OVCAR-8 ovarian, in the test with HT29 colon, in the test on UACC-62 melanoma, in the test with NCI-H226 lung and in the test on OVCAR-3 ovarian was greater than 100 µM in each case. Besides, the TGI with KM12 colon, in the test on NCI/ADR-RES ovarian and in the test on A498 renal was greater than 100 µM each time.

The record behind these values is PubChem BioAssay (NCI).
